Key:
S1P1 receptor = assay: Immunosuppressive effect: Western blot of S1P1 receptor in LLC cells; format: cell-based, human; conditions: incubation for discrete times (3 hours, 12 hours)
Protocol: To this end, LLC cells (5×10^5 per well) were seeded and cultured on 12-well plates in RPMI-1640 medium, 10% FBS, at 37° C. in a humidified atmosphere containing 5% CO2, adding to the culture the various test compounds. Incubation was conducted for discrete times, at the end of which the cells were lysed to submit the protein content to Western blot analysis with antibodies that specifically recognize the S1P1 receptor.

[1] = tested on: breast cancer and multiple myeloma cells; conditions: cited from earlier work

Structure (SMILES) | S1P1 receptor expression (Western blot, FIG. 1) (S1P1 receptor) | IC50 ([1]; breast cancer and multiple myeloma cells, articles of D. Ju et al., read-out: induction of caspase-dependent apoptosis (IC50 values)) [µM] | cytotoxic effects of dyclonine alone ([1]; in vitro, alone without MG132 or bortezomib)
CCCCCCCCc1ccc(CCC(N)(CO)CO)cc1.Cl [FTY720, 2-amino-2[2-(4-octylphenyl)ethyl]propane-1,3-diol hydrochloride] | induces a rapid decrease of S1P1 receptor |  | 
CCCCOc1ccc(C(=O)CCN2CCCCC2)cc1 [dyclonine] |  | 15 to 30 | very limited cytotoxic effects

Source: patent publication US11345673B2, “1-phenylpropanone compounds and use thereof” (UNIVERSITA' DEGLI STUDI DI PADOVA, priority 2016, dated 2022)
